# Columns and labels:
# [1] = Plasma incubations (human plasma stability); assay type: in vitro ADME; conditions: 37° C. Further: tested at 25 µM.
# Description: Aliquots were removed at 2 and 60 minutes and quenched with an equal volume of cold acetonitrile. After mixing vigorously, the precipitated protein matter was removed by filtration (Multiscreen Solvinert filter plates, Millipore, Bedford, Mass., USA) and the filtrate analysed by reverse phase HPLC with mass spectrometric detection, using single ion monitoring of the [M+H]^+ species. Metabolic turnover was determined by comparison of peak areas from the ion chromatograms of the parent compound at 2 and 60 minutes and expressed as percent remaining at 1 hour.
# [2] = target: T1, cathepsin K (Homo sapiens, UniProt P43235); assay: In vitro cathepsin Ki inhibition measurements; assay type: biochemical; parameters: purchased B. Turk, Josef Stefan Institute, Ljubljana, Slovenia; conditions: human recombinant cathepsin K; read-out: In vitro Ki (nM) vs Cath K
# T1 sequence (P43235 115-329): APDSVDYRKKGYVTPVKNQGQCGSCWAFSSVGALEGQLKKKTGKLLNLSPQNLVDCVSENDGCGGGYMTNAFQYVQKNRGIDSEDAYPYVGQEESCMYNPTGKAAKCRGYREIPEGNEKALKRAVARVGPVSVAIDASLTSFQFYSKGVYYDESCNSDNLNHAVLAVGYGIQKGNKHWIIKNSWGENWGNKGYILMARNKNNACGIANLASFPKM
# Description: Stock solutions of substrate or inhibitor were made up to 10 mM in 100% dimethylsulfoxide (DMSO) (Rathburns, Glasgow, U.K.) and diluted as appropriately required. In all cases the DMSO concentration in the assays was maintained at less than 1% (vol./vol.). The equilibrium inhibition constants (Ki^SS) for each compound were measured under steady-state conditions monitoring enzyme activity as a function of inhibitor concentration. The values were calculated on the assumption of pure competitive behaviour (Cornish-Bowden, A. Fundamentals of enzyme kinetics Portland Press; 1995, 93-128). Human recombinant cathepsin K (0.25 nM final; B. Turk, Josef, Stefan Institute, Ljubljana, Slovenia), was routinely assayed in 100 mM sodium acetate; pH 5.5 containing 1 mM EDTA, 10 mM L-cysteine and 1.8 μM Z-Leu-Arg-AMC ([S]═KM).
# The apparent inhibition constant (Ki) for each compound was determined on the basis that inhibition was reversible and occurred by a pure-competitive mechanism. The Ki values were calculated, from the dependence of enzyme activity as a function of inhibitor concentration, by direct regression analysis (Prism v 3.02) using Equation 2 (Cornish-Bowden, A., 1995).
# In situations where the apparent dissociation constant (Ki^app) approached the enzyme concentrations, the Ki^app values were calculated using a quadratic solution in the form described by Equation 3 (Morrison, J. F. Trends Biochem. Sci., 7, 102-105, 1982; Morrison, J. F. Biochim. Biophys. Acta, 185, 269-286, 1969; Stone, S. R. and Hofsteenge, J. Biochemistry, 25, 4622-4628, 1986).
# Curves were fitted by non-linear regression analysis (Prism) using a fixed value for the enzyme concentration. Equation 4 was used to account for the substrate kinetics, where ‘Ki’ is the inhibition constant, ‘[So]’ is the initial substrate concentration and ‘KM^app’ is the apparent macroscopic binding (Michaelis) constant for the substrate (Morrison, 1982).
# [3] = LogD determinations; assay type: physicochemical; conditions: Ion-count method; for logD at 1 h: 1-octanol/phosphate buffered saline, pH 7.4, pH 7.4
# Description: LogD(PBS) determinations were performed in 96 well microtitre plates using a miniaturised “shake-flask” method. […] The plates were then capped and mixed vigorously for 1 hour on a microtitre plate shaker, after which they were left to stand, allowing the PBS and octanol phases to separate. The PBS layer was analysed by reverse phase HPLC with mass spectrometric detection, using single ion monitoring of the [M+H]^+ species.
# Where AUCstd and AUCpbs are the peak areas from the standard and test ion chromatograms respectively.
# [4] = tested on: human osteoclasts; assay: Human osteoclast resorption assay; assay type: cell-based; conditions: Homo sapiens, Osteoclast, 48 h, 1 □ M, read-out: Cell-based % Inh. @ 1 □ M Human
# Description: Bone resorption was studied using a model where human osteoclast precursor cells were cultured on bovine bone slices for 9 days and allowed to differentiate into bone-resorbing osteoclasts. The formed mature osteoclasts were then allowed to resorb bone. The assay was performed by Pharmatest Services Ltd, Itäinen Pitkakatu 4C, Turku, Finland. After the culture period, bone collagen degradation products were quantified from the culture medium as an index of bone resorption. Inhibitor compounds were added into the cell cultures after the differentiation period and their effects on the resorbing activity of mature osteoclasts were determined. The studies included a baseline group without added compounds and a positive control group where a potent cathepsin K inhibitor E-64 was added.
# Human peripheral blood monocytes were suspended to culture medium and allowed to attach to bovine bone slices. The bone slices were transferred into 96-well tissue culture plates containing culture medium with appropriate amounts of important growth factors favouring osteoclast differentiation, including M-CSF, RANK-ligand and TGF-[…]. The cells were incubated in a CO2 incubator in humidified atmosphere of 95% air and 5% carbon dioxide at 37° C. At day 7 when osteoclast differentiation was complete, the culture medium was replaced with culture medium containing conditions favouring osteoclast activity. The cell culture was continued for an additional 2 days, during which the formed mature osteoclasts were allowed to resorb bone in the presence of vehicle, control inhibitor (E64) or test compounds. At the end of the culture, bone collagen degradation products released into the culture medium were determined using a commercially available ELISA method (CrossLaps® for culture, Nordic Bioscience, Herlev, Denmark) as an index of bone resorption (see Bagger, Y. Z. et al, J. Bone. Miner. Res. 14 (suppl. 1), S370).
Structure (SMILES),Human Plasma Stability % rem. @ 1 h [1],Ki [2],logD at 1 h [3],LogD pH 7.4 [3],inhibition at 1 µM [4]
"CO[C@H]1CN(C(=O)[C@H](CC(C)C)NC(=O)c2ccc(N3CCN(C)CC3)cc2)[C@@H]2C(=O)CO[C@H]12 [Example 1, N—((S)-1-((3aS,6S,6aS)-6-methoxy-3-oxodihydro-2H-furo[3,2-b]pyrrol-4(5H,6H,6aH)-yl)-4-methyl-1-oxopentan-2-yl)-4-(4-methylpiperazin-1-yl)benzamide]",96%,5.6 nM,> 0.8,1.18,63 to 88%
"CO[C@H]1CN(C(=O)[C@H](CC(C)(C)C)NC(=O)c2ccc(N3CCN(C)CC3)cc2)[C@@H]2C(=O)CO[C@H]12 [Example 2, N—((S)-1-((3aS,6S,6aS)-6-methoxy-3-oxodihydro-2H-furo[3,2-b]pyrrol-4(5H,6H,6aH)-yl)-4,4-dimethyl-1-oxopentan-2-yl)-4-(4-methylpiperazin-1-yl)benzamide]",93%,6.3 nM,> 0.8,1.00,63 to 88%
"CO[C@@H]1CN(C(=O)[C@H](CC(C)(C)C)NC(=O)c2ccc(N3CCN(C)CC3)cc2)[C@@H]2C(=O)CO[C@@H]21 [Example 4, N—((S)-1-((3aS,6R,6aS)-6-methoxy-3-oxodihydro-2H-furo[3,2-b]pyrrol-4(5H,6H,6aH)-yl)-4,4-dimethyl-1-oxopentan-2-yl)-4-(4-methylpiperazin-1-yl)benzamide]",89%,5.6 nM,> 0.8,0.84,63 to 88%
"CCN1CCN(c2ccc(C(=O)N[C@@H](CC(C)C)C(=O)N3C[C@H](OC)[C@H]4OCC(=O)[C@H]43)cc2)CC1 [Example 5, 4-(4-ethylpiperazin-1-yl)-N—((S)-1-((3aS,6S,6aS)-6-methoxy-3-oxodihydro-2H-furo[3,2-b]pyrrol-4(5H,6H,6aH)-yl)-4-methyl-1-oxopentan-2-yl)benzamide]",96%,5.8 nM,> 0.8,1.05,63 to 88%
"CCN1CCN(c2ccc(C(=O)N[C@@H](CC(C)C)C(=O)N3C[C@@H](OC)[C@H]4OCC(=O)[C@H]43)cc2)CC1 [Example 7, 4-(4-ethylpiperazin-1-yl)-N—((S)-1-((3aS,6R,6aS)-6-methoxy-3-oxodihydro-2H-furo[3,2-b]pyrrol-4(5H,6H,6aH)-yl)-4-methyl-1-oxopentan-2-yl)benzamide]",93%,9.9 nM,> 0.8,0.89,63 to 88%
"CCN1CCN(c2ccc(C(=O)N[C@@H](CC(C)(C)C)C(=O)N3C[C@@H](OC)[C@H]4OCC(=O)[C@H]43)cc2)CC1 [Example 8, 4-(4-ethylpiperazin-1-yl)-N—((S)-1-((3aS,6R,6aS)-6-methoxy-3-oxodihydro-2H-furo[3,2-b]pyrrol-4(5H,6H,6aH)-yl)-4,4-dimethyl-1-oxopentan-2-yl)benzamide]",92%,9.2 nM,> 0.8,1.09,63 to 88%
"CCCN1CCN(c2ccc(C(=O)N[C@@H](CC(C)C)C(=O)N3C[C@@H](OC)[C@H]4OCC(=O)[C@H]43)cc2)CC1 [Example 15, N—((S)-1-((3aS,6R,6aS)-6-methoxy-3-oxodihydro-2H-furo[3,2-b]pyrrol-4(5H,6H,6aH)-yl)-4-methyl-1-oxopentan-2-yl)-4-(4-propylpiperazin-1-yl)benzamide]",92%,16.3 nM,> 0.8,1.34,63 to 88%

# Continued, in another order:
Human Plasma Stability % rem. @ 1 h [1],Ki [2],logD at 1 h [3],LogD pH 7.4 [3],Structure (SMILES),inhibition at 1 µM [4]
97%,3.7 nM,–,1.69,"CCCN1CCN(c2ccc(C(=O)N[C@@H](CC(C)(C)C)C(=O)N3C[C@@H](OC)[C@H]4OCC(=O)[C@H]43)cc2)CC1 [Example 16, N—((S)-1-((3aS,6R,6aS)-6-methoxy-3-oxodihydro-2H-furo[3,2-b]pyrrol-4(5H,6H,6aH)-yl)-4,4-dimethyl-1-oxopentan-2-yl)-4-(4-propylpiperazin-1-yl)benzamide]",63 to 88%
91%,8.4 nM,> 0.8,1.2,"CO[C@@H]1CN(C(=O)[C@H](CC(C)(C)C)NC(=O)c2ccc(N3CCN(C(C)C)CC3)cc2)[C@@H]2C(=O)CO[C@@H]21 [Example 22, 4-(4-isopropylpiperazin-1-yl)-N—((S)-1-((3aS,6R,6aS)-6-methoxy-3-oxodihydro-2H-furo[3,2-b]pyrrol-4(5H,6H,6aH)-yl)-4,4-dimethyl-1-oxopentan-2-yl)benzamide]",63 to 88%
88%,11.2 nM,–,0.55,"COCCN1CCN(c2ccc(C(=O)N[C@@H](CC(C)C)C(=O)N3C[C@H](N)[C@H]4OCC(=O)[C@H]43)cc2)CC1 [Example 23, N—((S)-1-((3aS,6S,6aR)-6-amino-3-oxodihydro-2H-furo[3,2-b]pyrrol-4(5H,6H,6aH)-yl)-4-methyl-1-oxopentan-2-yl)-4-(4-(2-methoxyethyl)piperazin-1-yl)benzamide]",25 to 54%
92%,6.9 nM,–,0.56,"COCCN1CCN(c2ccc(C(=O)N[C@@H](CC(C)C)C(=O)N3C[C@H](O)[C@H]4OCC(=O)[C@H]43)cc2)CC1 [Example 25, N—((S)-1-((3aS,6S,6aS)-6-hydroxy-3-oxodihydro-2H-furo[3,2-b]pyrrol-4(5H,6H,6aH)-yl)-4-methyl-1-oxopentan-2-yl)-4-(4-(2-methoxyethyl)piperazin-1-yl)benzamide]",25 to 54%
95%,8.1 nM,–,0.23,"COCCN1CCN(c2ccc(C(=O)N[C@@H](CC(C)C)C(=O)N3C[C@@H](O)[C@H]4OCC(=O)[C@H]43)cc2)CC1 [Example 26, N—((S)-1-((3aS,6R,6aS)-6-hydroxy-3-oxodihydro-2H-furo[3,2-b]pyrrol-4(5H,6H,6aH)-yl)-4-methyl-1-oxopentan-2-yl)-4-(4-(2-methoxyethyl)piperazin-1-yl)benzamide]",25 to 54%
99%,6.3 nM,> 0.8,1.23,"COCCN1CCN(c2ccc(C(=O)N[C@@H](CC(C)C)C(=O)N3C[C@H](OC)[C@H]4OCC(=O)[C@H]43)cc2)CC1 [Example 27, N—((S)-1-((3aS,6S,6aS)-6-methoxy-3-oxodihydro-2H-furo[3,2-b]pyrrol-4(5H,6H,6aH)-yl)-4-methyl-1-oxopentan-2-yl)-4-(4-(2-methoxyethyl)piperazin-1-yl)benzamide]",63 to 88%
88%,14.4 nM,–,0.76,"COCCN1CCN(c2ccc(C(=O)N[C@@H](CC(C)C)C(=O)N3C[C@@H](OC)[C@H]4OCC(=O)[C@H]43)cc2)CC1 [Example 28, N—((S)-1-((3aS,6R,6aS)-6-methoxy-3-oxodihydro-2H-furo[3,2-b]pyrrol-4(5H,6H,6aH)-yl)-4-methyl-1-oxopentan-2-yl)-4-(4-(2-methoxyethyl)piperazin-1-yl)benzamide]",25 to 54%
